Patent US7897582B2, “Oligonucleotide compositions and methods for the modulation of the expression of B7 protein” (Isis Pharmaceuticals, Inc., priority 2003, dated 2011)
Strand notation (5' to 3'): a small letter for the sugar, then the base; units joined by * are phosphorothioate-linked, units joined directly phosphodiester-linked; [ ] holds rarer units or linkages, { } end groups; capitals alone tell only the bases. e = 2'-O-(2-methoxyethyl) (MOE); [5mC] = 5-methylcytosine; d = 2'-deoxy (DNA)

System: hB7-2 mRNA
Assay: Ribonuclease protection assay of hB7-2 mRNA in transfected COS-7 cells
Assay type: cell-based, human
Procedure: For ribonuclease protection assays, cells were harvested 18 hours after completion of oligonucleotide treatment using a Totally RNA™ kit (Ambion, Austin, Tex.). The probes for the assay were generated from plasmids pcB7-2 (linearized by digestion with Bgl II) and pTRI-b-actin (Ambion Inc., Austin, Tex.). In vitro transcription of the linearized plasmid from the SP6 promoter was performed in the presence of α-^32P-UTP (800 Ci/mmole) yielding an antisense RNA complementary to the 3′ end of B7-2 (position 1044-1391). The probe was gel-purified after treatment with DNase I to remove DNA template. Ribonuclease protection assays were carried out using an RPA II™ kit (Ambion) according to the manufacturer's directions. Total RNA (5 μg) was hybridized overnight, at 42° C., with 10^5 cpm of the B7-2 probe or a control beta-actin probe. The hybridization reaction was then treated, at 37° C. for 30 minutes, with 0.4 units of RNase A and 2 units of RNase T1. Protected RNA was precipitated, resuspended in 10 μL of gel loading buffer and electrophoresed on a 6% acrylamide gel with 50% w/v urea at 20 W. The gel was then exposed and the lanes quantitated using a PhosphorImager (Molecular Dynamics, Sunnyvale, Calif.) essentially according to the manufacturer's instructions.
The oligonucleotides were screened as described in Example 4 except that the concentration of oligonucleotide was varied as shown in Table 13. Mismatch control oligonucleotides were included.

[1] = COS-7 cells, B7-2 mRNA, oligonucleotide dose 10 nM
[2] = COS-7 cells, B7-2 mRNA, oligonucleotide dose 10 nM, basal = 100%
[3] = COS-7 cells, B7-2 mRNA, oligonucleotide dose 30 nM
[4] = COS-7 cells, B7-2 mRNA, oligonucleotide dose 30 nM, basal = 100%
[5] = COS-7 cells, B7-2 mRNA, oligonucleotide dose 100 nM, basal = 100%
[6] = COS-7 cells, B7-2 mRNA, oligonucleotide dose 300 nM, basal = 100%

## 24737 (antisense eA*eG*eT*eA*eT*dG*dT*dT*dT*d[5mC]*dT*d[5mC]*dA*d[5mC]*dT*e[5mC]*e[5mC]*eG*eA*eT) [compound 24737]
[1]
  % mRNA INHIBITION: 15%
[2]
  % mRNA EXPRESSION: 85%
[3]
  % mRNA INHIBITION: 5%
[4]
  % mRNA EXPRESSION: 95%
COS-7 cells, B7-2 mRNA, oligonucleotide dose 100 nM
  % mRNA INHIBITION: 13%
[5]
  % mRNA EXPRESSION: 87%
COS-7 cells, B7-2 mRNA, oligonucleotide dose 300 nM
  % mRNA INHIBITION: 1%
[6]
  % mRNA EXPRESSION: 99%

## 22303 (eA*eG*eA*eG*eT*dT*dG*d[5mC]*dG*dA*dG*dG*d[5mC]*d[5mC]*dG*e[5mC]*eT*eT*e[5mC]*eT; antisense) [compound 22303]
Human B7-2 mRNA, Table 12
  % mRNA EXPRESSION: 46%

## 22292 (e[5mC]*eT*eG*eT*e[5mC]*dA*dA*dA*dT*dT*dT*d[5mC]*dT*d[5mC]*dT*eT*eT*eG*e[5mC]*e[5mC]; antisense) [compound 22292]
Human B7-2 mRNA, Table 12
  % mRNA EXPRESSION: 39%

## 22310 (eT*eG*eT*eG*e[5mC]*dT*d[5mC]*dT*dG*dA*dA*dG*dT*dG*dA*eA*eA*eA*eG*eA; antisense) [compound 22310]
Human B7-2 mRNA, Table 12
  % mRNA EXPRESSION: 41%

## 22289 (eT*eG*eG*e[5mC]*eA*dT*dG*dG*d[5mC]*dA*dG*dG*dT*d[5mC]*dT*eG*e[5mC]*eA*eG*eT; antisense) [compound 22289]
Human B7-2 mRNA, Table 12
  % mRNA EXPRESSION: 41%

## 22306 (eG*eG*e[5mC]*eT*eT*dT*dA*d[5mC]*dT*d[5mC]*dT*dT*dT*dA*dA*eT*eT*eA*eA*eA; antisense) [compound 22306]
Human B7-2 mRNA, Table 12
  % mRNA EXPRESSION: 44%

## 22295 (eT*eG*eA*eT*e[5mC]*dT*dG*dA*dA*dG*dA*dT*dT*dG*dT*eG*eA*eA*eG*eT; antisense) [compound 22295]
Human B7-2 mRNA, Table 12
  % mRNA EXPRESSION: 66%
  % mRNA INHIBITION: 34%

## 22290 (eA*eG*e[5mC]*eT*e[5mC]*dA*d[5mC]*dT*d[5mC]*dA*dG*dG*d[5mC]*dT*dT*eT*eG*eG*eT*eT; antisense) [compound 22290]
Human B7-2 mRNA, Table 12
  % mRNA EXPRESSION: 42%

## 24736 (antisense eG*e[5mC]*eT*e[5mC]*e[5mC]*dA*dA*dG*dT*dG*dT*d[5mC]*d[5mC]*d[5mC]*dA*eA*eT*eG*eA*eA) [compound 24736]
[2]
  % mRNA EXPRESSION: 102%
[4]
  % mRNA EXPRESSION: 101%
[5]
  % mRNA EXPRESSION: 100%
[6]
  % mRNA EXPRESSION: 107%

## 22302 (eA*eG*eA*eA*eA*dA*d[5mC]*d[5mC]*dA*dT*d[5mC]*dA*d[5mC]*dA*d[5mC]*eA*eT*eA*eT*eA; antisense) [compound 22302]
Human B7-2 mRNA, Table 12
  % mRNA EXPRESSION: 41%

## 22300 (eT*e[5mC]*eT*eG*eT*dG*dA*d[5mC]*dA*dT*dT*dA*dT*d[5mC]*dT*eT*eG*eA*eG*eA; antisense) [compound 22300]
Human B7-2 mRNA, Table 12
  % mRNA EXPRESSION: 39%

## 22305 (e[5mC]*eA*eT*e[5mC]*eA*dG*dA*dT*d[5mC]*dT*dT*dT*d[5mC]*dA*dG*eG*eT*eA*eT*eA; antisense) [compound 22305]
Human B7-2 mRNA, Table 12
  % mRNA EXPRESSION: 57%
  % mRNA INHIBITION: 43%

## 22304 (eT*e[5mC]*e[5mC]*e[5mC]*eT*d[5mC]*dT*d[5mC]*d[5mC]*dA*dT*dT*dG*dT*dG*eT*eT*eG*eG*eT; antisense) [compound 22304]
Human B7-2 mRNA, Table 12
  % mRNA EXPRESSION: 41%

## 22296 (eA*eA*eG*e[5mC]*e[5mC]*d[5mC]*dT*dT*dG*dT*d[5mC]*d[5mC]*dT*dT*dG*eA*eT*e[5mC]*eT*eG; antisense) [compound 22296]
Human B7-2 mRNA, Table 12
  % mRNA EXPRESSION: 42%

## 22308 (eG*eG*eA*eG*eT*d[5mC]*d[5mC]*dT*dG*dG*dA*dG*d[5mC]*d[5mC]*d[5mC]*e[5mC]*e[5mC]*eT*eT*eA; antisense) [compound 22308]
Human B7-2 mRNA, Table 12
  % mRNA EXPRESSION: 40%

## 24738 (antisense eT*eG*e[5mC]*e[5mC]*eA*dG*d[5mC]*dA*d[5mC]*d[5mC]*d[5mC]*dG*dG*dT*dA*e[5mC]*eG*eT*e[5mC]*e[5mC]) [compound 24738]
[1]
  % mRNA INHIBITION: 19%
[2]
  % mRNA EXPRESSION: 81%
[3]
  % mRNA INHIBITION: 8%
[4]
  % mRNA EXPRESSION: 92%
[5]
  % mRNA EXPRESSION: 101%
[6]
  % mRNA EXPRESSION: 124%
